Assay results published in patent US20150174207A1, “METHODS FOR TREATING CANCER WITH GHRH AGONISTS” (UNIVERSITY OF MIAMI, priority 2013, published 2015).
“Also recorded” adds a separate entry of the source. Marks after values point to notes of the source that are not given here. [ ]: non-standard residue; d: D form. The star is where a group is joined. Desaminotyrosyl = O=C(CCc1ccc(O)cc1)*; Agmatine = N=C(N)NCCCCN*; Nle = CCCC[C@H](N)C(=O)O; Orn = NCCC[C@H](N)C(=O)O; Abu = CC[C@H](N)C(=O)O

How the values were obtained:
[1] = tested on: U-87 cell-derived tumors; assay: Human Cancer PathwayFinder quantitative PCR array of dissected tumor samples; format: in vivo, nude mice; conditions: tumors after 6 wk treatment; fold change (ΔΔCt) vs. control
Method: (§1) Six-wk-old nude mice (Ncr nu/nu) were obtained from the National Cancer Institute (Bethesda, Md.). The animals were housed in sterile cages in a temperature-controlled room with a 12-h light/12-h dark schedule and were fed with autoclaved chow and water, ad libitum. The Institutional Animal Care and Use Committee, VA Medical Center Miami, Fla. fully approved the animal protocols. For the therapy study, 10^6 cells per mouse of the human glioblastoma cell line, U-87 MG (American Type Culture Collection, ATCC), were injected into the flanks of four nude mice (Ncr nu/nu) under isoflurane anesthesia (Baxter). A month later, the resulting tumors were harvested and minced into ˜3 mm^3 pieces and transplanted into flanks of nude mice, under anesthesia, using a minitrocar. When the tumors reached ˜32 mm^3, the mice were randomized into four groups. […] Tumor volume was measured with microcalipers once a week and calculated using the formula: (length×width×height×in)/6. Tumor doubling time was calculated using the formula: [study duration×logarithm (LOG) 2]/(LOG final tumor volume−LOG initial tumor volume). […]
Total RNA was isolated from representative, DNase treated, U-87 MG dissected tumor samples using a NucleoSpin kit according to the manufacturer's instructions (Macherey-Nagel). Four tumor samples from each group were analyzed. The yield and the quality of RNA samples were determined spectrophotometrically using 260 nm, and 260/280- and 260/230-nm ratio. […]
The Human Cancer PathwayFinder quantitative PCR array (PAHS-033A; Qiagen) used in our study contains 84 unique genes related to cell proliferation, apoptosis, cell cycle, angiogenesis, invasion, and metastasis. […] Fold changes in gene expression were calculated using the ΔΔCt method and five stably expressed housekeeping genes (B2M, HPRT1, RPL13A, GAPDH, and ACTB) were used for normalization of the results.

[2] = tested on: U-87 MG cells; assay: Cell counting after repeated exposure for 3 wk (Coulter Counter); format: cell-based, human; conditions: repeated exposure 3 wk, 1 μM JI-34 daily, DOX weekly at 100 nM; vs. control
Method: (§2) U-87 MG cells were cultured in Eagle's minimum essential medium (ATCC) medium [supplemented with 10% FBS (ATCC) and 0.1% penicillin/streptomycin] at 37° C. and 5% CO2 atmosphere. For cell count and cell size determination, […] were seeded into T-25 flasks. The medium was changed two to three times a week. The following treatment in vitro groups were set up: (Group 1) control, vehicle solution; (group 2) JI-34 at 1 μM final concentration, daily; (group 3) DOX at 100 nM final concentration, weekly on Thursdays; and (group 4) JI-34, 1 μM and DOX, 100 nM. After 3 wk, cell count and cell size were determined by Z Series Coulter Counter (Beckman Coulter).

[3] = tested on: U-87 MG cells; assay: Cell volume determination (intracellular water space, 3-OMG); format: cell-based, human; conditions: repeated exposure 3 wk, 1 μM JI-34 daily, DOX weekly at 100 nM; vs. control
Method: as §2
Cell volume was estimated by measuring the intracellular water space as follows. Briefly, 1 mM 3-O-methylglucose (3-OMG) and 0.5 μCi/mL [3H]-3-OMG were added to the culture 6 h before the volume assay. At the end of the incubation period, culture medium was aspirated, and an aliquot was saved for radioactivity determination. […] Radioactivity in the cell extracts and media was determined, and an aliquot of the cell extract was used for protein estimation with the Bio-Rad bicinchoninic acid kit. Values were normalized to protein level, and cell volume was expressed as microliters/milligram protein.

[4] = tested on: U-87 MG cells; assay: MTT proliferation assay in vitro; format: cell-based, human; conditions: JI-34 1 μM, DOX 100 nM; combination: 24 h JI-34 pretreatment, then DOX+JI-34 48 h
Method: For proliferation studies, 104 cells per well were seeded in 100 μL media, in a 96-well plate, and incubated for 24 h in a humidified incubator at 37° C. Then, culture medium was replaced with FBSfree medium (starvation) for 24 h. After 24 h, the cells received full medium containing the following treatments: Groups 1 (control) and 3, vehicle solution; groups 2 and 4, JI-34 (1 μM final concentration). After another 24 h, the cells received the following treatments: group 1, vehicle solution; group 2, JI-34; group 3, DOX (100 nM final concentration); and group 4, JI-34+DOX. Then, they were incubated for 48 h and the effect on cell proliferation was evaluated by using the MTT assay (CellTiter 96 Non-Radioactive Cell Proliferation Assay; Promega), according to the manufacturer's instructions with the help of a Victor3 multilabel counter (Perkin-Elmer).

[5] = tested on: U-87 MG, human GBM tumors; assay: Growth of U-87 MG glioblastoma xenografts in nude mice; format: in vivo; conditions: U-87 MG xenografts in nude mice, 6 wk; JI-34 50 μg/kg/d s.c., DOX 13 μmol/kg/wk i.v.; vs. control
Method: as §1

[6] = tested on: U-87 MG cells; assay: ApoLive-Glo Multiplex assay (viability and apoptosis); format: cell-based, human; conditions: JI-34 1 μM, DOX 100 nM, after 24 h of treatment
Method: Determinations of viability and apoptosis were performed from freshly seeded cell samples (10^4 cells per well, in 100 μL media, in a 96-well plate) with the help of ApoLive-Glo Multiplex Assay (Promega), according to the manufacturer's instructions. First the cells received full medium containing the following treatments: Groups 1 (control) and 3, vehicle solution; groups 2 and 4, JI-34 (1 μM final concentration). After 24 h, the cells received the following treatments: group 1, (vehicle solution); group 2, JI-34; group 3, DOX (100 nM final concentration); and group 4, JI-34+DOX. After another 24 h of incubation, viability reagent was added to the wells and fluorescence was measured by Victor3 multilabel counter. Then Caspase-Glo 3/7 apoptosis reagent was added and luminescence was determined.

[7] = tested on: U-87 MG xenografts; assay: Western blot of necropsied in vivo tumor samples; parameters: species or system nude mice; conditions: xenograft samples after 6 wk treatment
Method: Six-wk-old nude mice (Ncr nu/nu) were obtained from the National Cancer Institute (Bethesda, Md.). The animals were housed in sterile cages in a temperature-controlled room with a 12-h light/12-h dark schedule and were fed with autoclaved chow and water, ad libitum. The Institutional Animal Care and Use Committee, VA Medical Center Miami, Fla. fully approved the animal protocols. For the therapy study, 10^6 cells per mouse of the human glioblastoma cell line, U-87 MG (American Type Culture Collection, ATCC), were injected into the flanks of four nude mice (Ncr nu/nu) under isoflurane anesthesia (Baxter). A month later, the resulting tumors were harvested and minced into ˜3 mm^3 pieces and transplanted into flanks of nude mice, under anesthesia, using a minitrocar. When the tumors reached ˜32 mm^3, the mice were randomized into four groups. The animals received the following treatments for 6 wk: (Group 1) control, 16 tumors, vehicle solution; (group 2) agonist JI-34, 1 μg/20 g, s.c., daily, 19 tumors; (group 3) DOX, 260 nmol/20 g, i.v., weekly on Thursdays, 19 tumors; and (group 4) JI-34 (1 μg/20 g daily)+DOX (260 nmol/20 g), 16 tumors. Tumor volume was measured with microcalipers once a week and calculated using the formula: (length×width×height×in)/6. Tumor doubling time was calculated using the formula: [study duration×logarithm (LOG) 2]/(LOG final tumor volume−LOG initial tumor volume). At the end of the experiment, the mice were killed under pentobarbital anesthesia, tumors were excised and weighed; necropsy was performed. Samples free of necrotic debris were immediately snap frozen in liquid nitrogen and stored at −80° C. for further analyses.
Protein from the tumor tissue was isolated using the NucleoSpin kit (Macherey-Nagel). Protein concentrations were determined by NanoDrop (NanoDrop Technologies). Equal amounts of protein were resuspended in sample loading buffer (0.25 M Trizma Base, 8% SDS, 40% glycerol, 0.004% bromophenol blue, 4% P3-mercaptoethanol; pH 6.8), boiled for 3 min and separated by 12% SDS-polyacrylamide gel electrophoresis. Proteins from the gel were then transferred onto nitrocellulose membranes, which were blocked with 50-50% Tris-buffered saline (20 mM Tris.HCl pH 7.5, 150 mM NaCl) and Odyssey blocking buffer for 1 h at room temperature, followed by an overnight incubation at 4° C. with the following primary antibodies: growth hormone-releasing hormone receptor (GHRH-R), (ab28692) nestin (ab92391), glial fibrillary acid protein (GFAP) (ab48050) (all from AbCam), β-actin (A5441; Sigma-Aldrich), or p53 (9282; Cell Signaling Technology). […] The protein bands were quantified using […] (LI-COR Biosciences); integrated density values of triplicate experiments were plotted.

[8] = tested on: U-87 MG cells; assay: Multidrug resistance (MDR) assay, calcein retention; format: cell-based, human; conditions: JI-34 1 μM pretreatment 24 h, DOX 100 nM, cyclosporin-A 1/1,000 dilution; 1 h; vs. control
Method: The multidrug resistance assays were performed according to the manufacturer's instructions (Cayman Chemical). U-87 MG cells were seeded, 5×10^4 cells per well density in 100 μL medium in 96-well, black, clear-bottom plates and grown overnight in a humidified incubator at 37° C. […] Afterward, the cells were incubated for 1 h, then calcein AM/Hoechst dye combined staining solution was added. Fifteen minutes later, both cell density (at excitation and emission wavelengths of 355 nm and 465 nm, respectively) and calcein retention (at excitation and emission wavelengths of 485 nm and 535 nm, respectively) were detected with the help of a Victor3 multilabel counter. Relative calcein retention values were expressed as a function of cell density.

[9] = tested on: U-87 MG cells; assay: ELISA of p53, FGF basic and TGFβ; format: cell-based, human; conditions: cell culture supernatant, 1 μM JI-34; vs. control
Method: Glioblastoma cells (10^5 cells per well) were seeded onto six-well plates, cultured overnight, and then exposed to compounds used in the 3-(4,5-dimethylthiazol-2-yl)-2,5-diphenyltetrazolium bromide proliferation assays: Groups 1 (control) and 3, vehicle solution; groups 2 and 4, GHRH agonists JI-34 (1 μM final concentration). After another 24 h, the cells received the following treatments: Group 1, vehicle solution; group 2, JI-34; group 3, doxorubicin (DOX) (100 nM final concentration); and group 4, JI-34+DOX. Concentrations of the specific proteins in the medium (in the case of FGF basic or TGFβ-1) or in samples of scraped and homogenized cells (in the case of p53) were determined after 24 h using ELISA kits according to the manufacturer's instructions. Human TGFβ and FGF basic ELISA kits were obtained from AbCam, whereas p53 was measured with a PathScan Sandwich ELISA kit (Cell Signaling Technology). Readings were normalized to protein concentrations as determined by NanoDrop (NanoDrop Technologies).

[10] = tested on: U-87 MG cells; assay: Immunocytochemistry / differentiation in reduced serum-containing medium; format: cell-based, human; conditions: JI-34 1 μM, 0.1% FBS-containing medium, 2 d; vs. DMSO control
Method: Cells were seeded onto coverslips in six-well plates (50,000 cells per well) in 10% FBS-containing growth medium. This medium was replaced with serum-free medium the following day for 24 h. Thereafter, GHRH agonist (JI-34, 1 μM) was added in medium supplemented with 0.1% FBS and remained for the consecutive 2 d. Control cells received vehicle (DMSO). At the end of the treatment, phase-contrast images of live cells were collected and cells were fixed in ice-cold acetone for 10 min, washed with PBS three times, and blocked with 2% goat serum in PBS for 30 min. GFAP (Abcam; 1:500 dilution) or nestin (BD Transduction Laboratories; 1:75 dilution) antibodies were added in PBS for 1 h. Anti-rabbit and anti-mouse secondary antibodies (Alexa Fluor 488; Jackson Immunoresearch) were also applied for 1 h. Coverslips were mounted in Vectashield mounting medium containing DAPI for nuclear staining (Vector Laboratories). Images were acquired on a Nikon Eclipse Ti fluorescence microscope (Nikon Instruments).

Molecule | Relative expression of B-cell lymphoma 2 (Bcl-2) [1] | Relative expression of Integrin α3 (CD49C) [1] | Relative expression of S100 calcium binding protein A4 (S100-A4) [1] | decrease in the number of cells [2] | decrease in the volume of the cells (intracellular water content) [3] [%] | inhibitory effect on proliferation (MTT) [4] | inhibition of tumor growth [5] [%] | increase in apoptosis [6] | expression of GFAP [7] | expression of the neuroectodermal stem-cell marker nestin [7] | increase in calcein retention [8] [%] | increase in GFAP expression (integrated density values) ([7]; compared with the control) [%] | decrease in level of TGFβ [9] [%] | decrease in level of bFGF [9] [%] | GFAP labeling (immunofluorescence) [10] | nestin level (immunofluorescence) [10]
COc1cccc2c1C(=O)c1c(O)c3c(c(O)c1C2=O)C[C@@](O)(C(=O)CO)C[C@@H]3O[C@H]1C[C@H](N)[C@H](O)[C@H](C)O1 [DOX, doxorubicin] | −1.8* | −1.65* | −2.34* | 52% | 20 | no significant effect | 35 | 182% | decrease | increased | 7 |  |  |  |  | 
[Dat^1, Orn^12, Abu^15, Orn^21, Nle^27, Asp^28, Agm^29]hGHRH(1-29)NH2 ([Desaminotyrosyl]ADAIFTNSYR[Orn]VL[Abu]QLSAR[Orn]LLQDI[Nle]D[Agmatine]-NH2) [JI-34] |  |  |  | no significant effect |  | no significant effect |  | no effect |  | decreased |  | 70 | 24 | 37 | high levels of GFAP were detected; also recorded: elevation in the intensity of GFAP-labeling | did not change notably; also recorded: did not show a significant change
